Reference: patent US20210379057A1, “NUTLIN-3A FOR USE IN TREATING A MYCOBACTERIUM TUBERCULOSIS INFECTION” (Massachusetts Institute of Technology, priority 2018, published 2021)

Columns and labels:
[1] = system: Mycobacterium tuberculosis (Mtb) in primary human CD14+ monocyte-derived macrophages; format: cell-based
Mtb infected macrophages = assay: Macrophage death in Mtb infected macrophages; conditions: Mtb infected macrophages treated with compound
p53 = format: cell-based, human

Compound: Cc1ccc2nc(NCCN)c3ncc(C)n3c2c1 [BMS-345541]
- Mtb control (bacterial survival, ratio of live GFP+ to total mCherry+ pixels) [1]: worsened bacterial control

Compound: O=C(Nc1cc(Cl)cc2c1[nH]c1cnccc12)c1cccnc1 [PS-1145]
- Mtb control (bacterial survival, ratio of live GFP+ to total mCherry+ pixels) [1]: worsened bacterial control

Compound: NNC(=O)c1ccncc1 [isoniazid]
- GFP+/RFP+ pixel area [1]: decrease in the GFP+/RFP+ pixel area

Compound: COc1ccc(C2=N[C@@H](c3ccc(Cl)cc3)[C@@H](c3ccc(Cl)cc3)N2C(=O)N2CCNC(=O)C2)c(OC(C)C)c1 [nutlin-3a]
- Mtb control (bacterial survival, ratio of live GFP+ to total mCherry+ pixels) [1]: significantly increased Mtb control
- macrophage death (Mtb infected macrophages): without increasing macrophage death
- expression of p53 (p53): enhanced expression of p53
